Experimental data reported in patent US8404279B2, “Method for improving the bud quality of a plant” (Bayer CropScience AG, priority 2007, dated 2013).
Read-outs that look alike come from different tables or passages of the source. Marks after values point to notes of the source that are not given here.

What was measured:
[1] = tested on: pear trees (Conference cultivar); assay: Productivity of the pear trees after the treatments (field trial); assay type: in vivo; conditions: 2006, treated 2004 and 2005
Method: (§1) During three consecutive years 2004, 2005 and 2006, a trial was carried out on young pear trees of the Conference cultivar on a Quince Adams stock. The pear trees of this orchard were planted in 1999 according to the system of a single row at a planting distance of 3.5 m between the rows and 1.5 m in the row with a tree height of 3 m.
(§2) During the 2004 trial, three products were compared in an arbitrary block design with 10 trees per plot in four repeats: the observations were made on the 8 trees inside the plot. […] The applications were in the post-flower period at an interval of 10 days.
(§3) In 2005, the same applications were repeated on the same trees.
(§4) After one year during flowering, the effect of the treatments on the quality of the flower bud was evaluated. Statistical analysis of the various parameters is performed (Unistat Statistical Package, Version 5.5). The original or processed data are analyzed according to the General Linear Model and the treatment means are separated in a standard manner using the Duncan multiple classification test (5% level).

[2] = tested on: flower bud dieback on pear trees (Conference variety); assay: Flower bud quality field trial against flower bud dieback on young pear trees; assay type: in vivo, pear trees (Conference cultivar); conditions: for Good quality buds (%) 1 yw S: 1-year old wood side position; for Good quality buds (%) 1 yw S / Good quality buds (%) 1 yw T / Good quality buds (%) 2 yw / Good quality buds (%) Per tree: treated 2004 and 2005, 2006 flower buds; for Good quality buds (%) 1 yw T: 1-year old wood terminal position; for Good quality buds (%) 2 yw: 2-year old wood
Method: as §1, §2, §3
In 2006, the complete trial was repeated on new trees in the same orchard. The fosetyl-Al doses varying between 2 and 3.75 kg/ha of standard orchard (corresponding to doses varying from 1.33 to 2.50 kg/ha of foliar surface area) were applied in the post-flower period during the months of May and June at an interval of 5 or 10 days between the treatments. Benzothiadiazole applied at a dose of 200 g/ha of standard orchard (corresponding to a dose of 133 g/ha of foliar surface area) was included as reference product in order to induce plant defense reactions by the trees.
as §4

[3] = flower buds 2006; for Fosetyl-Al residue: 10 days
From the text: In 2006, the magnitude of the levels of fosetyl-Al and phosphorous acid residues in the developing flower buds was monitored on three plots: in the control untreated plot, in the plot treated with fosetyl-Al based on 3×3.75 kg/ha (application on 18/05, 30/05 and 08/06) and in the plot treated with fosetyl-Al based on 6×2.0 kg/ha (application on 18/05, 30/05, 08/06, 19/06, 29/06 and 10/07).
On each date (with the exception of the first sampling date), 40 flower buds with their surrounding leaves were gathered. On the first sampling date, 40 flower buds were gathered without leaves.
The flower bud samples were taken before the next treatment on the following dates: 30/05, 08/06, 19/06, 28/06, 10/07 and 28/08. For the two fosetyl-Al and phosphorous acid products, the levels of residues in the flower buds were determined with the aid of an LC-MS-MS analytical method. The limit of quantification (LOQ) was 0.1 mg/kg for fosetyl-Al, 2 mg/kg for phosphorous acid and 3 mg/kg for the total residue expressed as fosetyl-Al equivalent. The total residue is the sum of the residues derived from fosetyl-Al and phosphorous acid expressed as fosetyl-Al equivalent.
The results are calculated according to the following formula:
[formula] in which: • Mfosetyl-Al represents the molecular weight of fosetyl-Al: 354.1 g/mol • Mphosphorous acid represents the molecular mass of phosphorous acid: 82 g/mol; multiplied by 3, since 1 mol of fosetyl-Al corresponds to 3 mol of phosphorous acid.
For the pear bud samples, the fosetyl-Al and phosphorous acid residues are extracted with the aid of an acetonitrile/water (50:50, v/v) mixture. After centrifugation and dilution of the sampling material, the residues are quantified by HPLC and detected by tandem mass spectrometry with electrospray ionization. The quantification is performed by external standardization. The statistical analysis is performed per parameter on the complete set of data for the different sampling dates.

[4] = tested on: pear trees (Conference cultivar); conditions: plot treated at 3.75 kg/ha, 2004 treatments
From the text: as §2, §3

[5] = 3 x 0.2 kg/ha May interval 10 + 3 x 0.2 kg/ha June interval 14
[6] = treated 2004, 2005 flower buds, 3 x 0.2 kg/ha May interval 10 + 3 x 0.2 kg/ha June interval 14
[7] = treated 2006, 2007 flower buds, 3 x 0.2 kg/ha May, interval 10
[8] = 3 x 3.75 kg/ha May interval 10 + 3 x 3.75 kg/ha June interval 14, object excluded from statistical analysis
[9] = 3 x 3.75 kg/ha May, interval 10
[10] = 3 x 3.75 kg/ha May, primary efflorescence
[11] = 3 x 3.75 kg/ha May interval 10 + 3 x 3.75 kg/ha June interval 14
[12] = treated 2004, 2005 flower buds, 3 x 3.75 kg/ha May interval 10 + 1 x 3.75 kg/ha AH
[13] = treated 2004, 2005 flower buds, 3 x 3.75 kg/ha May interval 10 + 3 x 3.75 kg/ha June interval 14
[14] = treated 2004, 2005 flower buds, 3 x 3.75 kg/ha May, interval 10
[15] = treated 2006, 2007 flower buds, 3 x 3.75 kg/ha June, interval 10
[16] = treated 2006, 2007 flower buds, 3 x 3.75 kg/ha May, interval 10
[17] = treated 2006, 2007 flower buds, 6 x 2 kg/ha June, interval 5
[18] = treated 2006, 2007 flower buds, 6 x 2 kg/ha May, interval 5
[19] = treated 2006, 2007 flower buds, 6 x 2 kg/ha May-June, interval 10
[20] = treated 2004, 2005 flower buds, 3 x dose 3 (kg/ha) May, interval 10
[21] = treated 2004, 2005 flower buds, 3 x dose 11.25 (kg/ha) May, interval 10

For `c1ccc2snnc2c1` [Benzothiadiazole, benzothiadiazole], the “Average weight” value [1, 5] was 163.2 g, the Number of fruits/tree [1, 5] was 113.88 fruits/tree and the “Productivity (kg/tree)” value [1, 5] was 18.5 kg/tree. The “Good quality buds (%) 1 yw S” value [2, 5] was 56.6%, the “Good quality buds (%) 1 yw T” value [2, 5] was 54.6% and the “Good quality buds (%) 2 yw” value [2, 5] was 58.5%. The “activity on flower bud quality” value ([2]; 2004 treatments, 2005 buds, reference product) was “insufficient activity”, the “Buds of good quality” value [2, 6] was 71.2% and the “Number of incomplete buds/tree” value [2, 6] was 22.5 buds/tree. For the same compound, the “Good quality buds (%) Per tree” value [2, 5] was 62.8%, the “Buds that have died back (%)” value [2, 7] was 43.5% and the “Good quality buds (%)” value [2, 7] was 44.2%. For the same compound, the “Number of incomplete buds/tree” value [2, 7] was 12.3 buds/tree.
With `CCO[PH](=O)O.[Al]` [Fosetyl-Al, aluminum ethyl hydrogen phosphonate] the “time the level of fosetyl-Al residue was maintained after the last treatment” value ([3]; dose of 3.75 kg/ha) was “approximately 4 weeks”, the Fosetyl-Al residue ([3]; fosetyl-Al 3 x 3.75 kg/ha May, sampling 08/06) was 12.92 mg/kg and the Fosetyl-Al residue ([3]; fosetyl-Al 3 x 3.75 kg/ha May, sampling 10/07) was 2.14 mg/kg. The Fosetyl-Al residue ([3]; fosetyl-Al 3 x 3.75 kg/ha May, sampling 19/06) was 10.65 mg/kg, the Fosetyl-Al residue ([3]; fosetyl-Al 3 x 3.75 kg/ha May, sampling 28/06) was 10.83 mg/kg and the Fosetyl-Al residue ([3]; fosetyl-Al 3 x 3.75 kg/ha May, sampling 28/08) was 0.11 mg/kg. For the same compound, the Fosetyl-Al residue ([3]; fosetyl-Al 3 x 3.75 kg/ha May, sampling 30/05) was 0.1 mg/kg, the Fosetyl-Al residue ([3]; fosetyl-Al 6 x 2 kg/ha May-June, sampling 08/06) was 10.64 mg/kg and the Fosetyl-Al residue ([3]; fosetyl-Al 6 x 2 kg/ha May-June, sampling 10/07) was 2.86 mg/kg. It also gave a Fosetyl-Al residue ([3]; fosetyl-Al 6 x 2 kg/ha May-June, sampling 19/06) of 4.52 mg/kg, a Fosetyl-Al residue ([3]; fosetyl-Al 6 x 2 kg/ha May-June, sampling 28/06) of 20.56 mg/kg and a Fosetyl-Al residue ([3]; fosetyl-Al 6 x 2 kg/ha May-June, sampling 28/08) of 0.18 mg/kg. The Fosetyl-Al residue ([3]; fosetyl-Al 6 x 2 kg/ha May-June, sampling 30/05) was 0.1 mg/kg, the “Average weight (g)” value [1, 8] was 137.9* g and the Number of fruits/tree [1, 8] was 152.2* fruits/tree. For the same compound, the “Productivity (kg/tree)” value [1, 8] was 21* kg/tree, the “Average weight” value [1, 9] was 144.8 g and the Number of fruits/tree [1, 9] was 148.8 fruits/tree. The “Productivity (kg/tree)” value [1, 9] was 21.5 kg/tree, the “Average weight” value [1, 10] was 157.7 g and the Number of fruits/tree [1, 10] was 140.4 fruits/tree. The “Productivity (kg/tree)” value [1, 10] was 22.1 kg/tree, the “Good quality buds (%) 1 yw S” value [2, 11] was 68.4% and the “Good quality buds (%) 1 yw S” value [2, 9] was 56.5%. The “Good quality buds (%) 1 yw S” value [2, 10] was 69.8%, the “Good quality buds (%) 1 yw T” value [2, 11] was 97.2% and the “Good quality buds (%) 1 yw T” value [2, 9] was 82.7%. For the same compound, the “Good quality buds (%) 1 yw T” value [2, 10] was 90.2%, the “Good quality buds (%) 2 yw” value [2, 11] was 86.1% and the “Good quality buds (%) 2 yw” value [2, 9] was 75.1%. For the same compound, the “Good quality buds (%) 2 yw” value [2, 10] was 68.2%, the “flower bud quality with an additional treatment after harvesting versus post-flower treatments alone” value ([2]; 2004 treatments, 2005 buds) was “results comparable” and the “Buds of good quality” value [2, 12] was 88.3%. For the same compound, the “Number of incomplete buds/tree” value [2, 12] was 9.2 buds/tree, the “Buds of good quality” value [2, 13] was 89.3% and the “Number of incomplete buds/tree” value [2, 13] was 7.9 buds/tree. The “Buds of good quality” value [2, 14] was 88.4%, the “Number of incomplete buds/tree” value [2, 14] was 7.9 buds/tree and the “Good quality buds (%) Per tree” value [2, 11] was 92.3%. For the same compound, the “Good quality buds (%) Per tree” value ([2]; 3 x 3.75 kg/ha May interval 10 + 3 x 3.75 kg/ha June interval 14, listed as fosetyl-Al) was 92%, the “Good quality buds (%) Per tree” value [2, 9] was 85.9% and the “Good quality buds (%) Per tree” value ([2]; 3 x 3.75 kg/ha May, interval 10, listed as fosetyl-Al) was 86%. For the same compound, the “Good quality buds (%) Per tree” value [2, 10] was 75.4%, the “Good quality buds (%) Per tree” value ([2]; 3 x 3.75 kg/ha May, primary efflorescence, listed as fosetyl-Al) was 75% and the “percentages of flower buds that have died back or that are incomplete” value ([2]; treated 2006, 2007 buds, all objects treated with fosetyl-Al) was “significantly reduced”. The “Buds that have died back (%)” value [2, 15] was 31.6%, the “Good quality buds (%)” value [2, 15] was 62.5% and the “Number of incomplete buds/tree” value [2, 15] was 5.9 buds/tree. The “Buds that have died back (%)” value [2, 16] was 33.4%, the “Good quality buds (%)” value [2, 16] was 59.3% and the “Number of incomplete buds/tree” value [2, 16] was 7.2 buds/tree. For the same compound, the “Good quality buds (%)” value ([2]; treated 2006, 2007 flower buds, 3 x 3.75 kg/ha May, interval 10, listed as fosetyl-Al) was 59%, the “Buds that have died back (%)” value [2, 17] was 31.5% and the “Good quality buds (%)” value [2, 17] was 63.5%. The “Number of incomplete buds/tree” value [2, 17] was 5 buds/tree, the “Buds that have died back (%)” value [2, 18] was 33% and the “Good quality buds (%)” value [2, 18] was 59.6%. For the same compound, the “Number of incomplete buds/tree” value [2, 18] was 7.4 buds/tree, the “Good quality buds (%)” value ([2]; treated 2006, 2007 flower buds, 6 x 2 kg/ha May, interval 5, listed as fosetyl-Al) was 59% and the “Buds that have died back (%)” value [2, 19] was 33.9%. For the same compound, the “Good quality buds (%)” value [2, 19] was 61.2%, the “Number of incomplete buds/tree” value [2, 19] was 4.9 buds/tree and the phytotoxicity [4] was “absence of phytotoxicity”.
With potassium phosphonate the “Buds of good quality” value [2, 20] was 89.5%, the “Number of incomplete buds/tree” value [2, 20] was 7.2 buds/tree and the “Buds of good quality” value [2, 21] was 92.4%. The “Number of incomplete buds/tree” value [2, 21] was 4.8 buds/tree.
